Key:
[1] = test system: HCN2 over-expressing cell culture; assay: Spontaneous rate (action potential recording) of AdHCN2 infected culture during drug superfusion; assay type: cell-based, rat; conditions: for spontaneous rate during drug exposure: AdHCN2 infected culture, same culture during superfusion with drug, control records: 48 (isoproterenol), 54 (carbachol), 96 (ZD-7288) beats/min; for effect on heart rate of the culture (in words): HCN2 over-expressing cell culture
Description: Adult rats were anesthetized with ketamine-xylazine before cardiectomy, and neonatal rats decapitated, in accordance with the Institutional Animal Care and Use Committee protocols of Columbia University. For preparing cell cultures of newborn ventricles, a standard trypsin dissociation method was employed (21). The cells were preplated to reduce fibroblast proliferation, cultured initially in serum-containing medium (except when being transfected with plasmids as described below) and then switched to a serum free medium (SFM) after 24 hours. Action potential studies were conducted on 4 day old monolayer cultures plated directly onto fibronectin coated 9×22 mm glass coverslips. For voltage clamp experiments, 4–6 day old monolayer cultures were resuspended by brief (2–3 min) exposure to 0.25% trypsin, then the cells replated onto fibronectin-coated coverslips and studied within 2–8 hours.
For adult rat ventricular myocytes, AdHCN2 infection was carried out 2–3 hours after the isolated cells were plated onto coverslips. For neonatal cells, the infection was done on the monolayer culture 1–3 days after plating. In either case, the culture medium was removed from the dishes (35-mm) and the inoculum of 0.2–0.3 ml/dish was added containing AdHCN2. The value of m.o.i. (multiplicity of infection—the ratio of viral units to cells) was 15–100. The inoculum was dispersed over the cells every 20 min by gently “tilting” the dishes so that the cells were evenly exposed to the viral particles. The dishes were kept at 37° C. in a CO2 incubator during the adsorption period of two hours, then the inoculum was discarded and the dishes were washed and refilled with the appropriate culture medium. The dishes remained in the incubator for 24–48 hours before electrophysiological experiments were conducted. In some experiments, an adenoviral construct for GFP (AdGFP) was employed.
The whole-cell voltage clamp technique was employed to record native If or expressed IHCN2 or IHCN4. Action potentials were recorded in current clamp mode, again using a whole cell patch electrode/Experiments were carried out on cells supervised at 35° C. Extracellular solution contained (mmol/L): NaCl, 140; NaOH, 2.3; MgCl2, 1; KCl, 5.4; CaCl2, 1.0; HEPES, 5; glucose, 10; pH 7.4. To record from myocytes expressing native currents (If) myocytes expressing HCN2 (IHCN2) or HCN4 (IHCN4), [K^+]0 was increased to 10 mmol/L, and MnCl2 (2 mmol/L) and BaCl2 (4 mmol/L) added to the superfusate to eliminate calcium and inward rectifier (IK1) currents. In some experiments CsCl (4 mmol/L) was used extracellularly to identify the pacemaker current as the Cs-sensitive current. The patch pipette solution included (mmol/L): aspartic acid, 130; KOH, 146; NaCl, 10; CaCl2, 2; EGTA-KOH, 5; Mg-ATP, 2; HEPES-KOH, 10, pH 7.2. Where indicated, 10 μmol/L cAMP was included in the pipette solution. A fast solution changing apparatus expedited the experimental protocols. The pipette resistance was typically […]. An Axopatch-200B amplifier and pClampS software (Axon Instruments) were used for acquisition and data analysis. The pacemaker current (If, IHCN2 or IHCN4) was defined as the time-dependent component taken at the end of a hyperpolarizing step to voltages in the range of −35 to −145 mV, while the holding potential was −35 mV unless otherwise indicated. For If and IHCN2 measurements, the hyperpolarizing test pulses were 3 or 6 sec long throughout the voltage range. To accurately record steady-state currents for the more slowly activating IHCN4, the test voltages varied in length from 6 sec at −125 mV to as long as 60 sec at −55 mV. When recording tail currents, the test pulses were followed by an 8-sec voltage step to −125 mV. In all pacemaker current protocols, each episode ended with a pulse to −5 mV for 0.5 sec to insure full deactivation.
The normal cardiac pacemaker beats independently but is regulated by neurotransmitters released from sympathetic and parasympathetic neurons. […]

expressed HCN2 current = biological target: T1, expressed HCN2 current (Mus musculus, UniProt O88703); assay: Whole-cell voltage clamp: shift of the activation relation of expressed HCN2 current in ventricular myocytes; assay type: cell-based; conditions: for shift of the voltage dependence of HCN2: saturating cAMP (10 μmol/L) in the pipette
T1 construct: expressed in transfected cells; host or cells: neonatal and adult rat ventricular myocytes in primary culture, infected with adenovirus AdHCN2 (or lipofectin-transfected with pCI-mHCN2)
T1 sequence (O88703 1-863): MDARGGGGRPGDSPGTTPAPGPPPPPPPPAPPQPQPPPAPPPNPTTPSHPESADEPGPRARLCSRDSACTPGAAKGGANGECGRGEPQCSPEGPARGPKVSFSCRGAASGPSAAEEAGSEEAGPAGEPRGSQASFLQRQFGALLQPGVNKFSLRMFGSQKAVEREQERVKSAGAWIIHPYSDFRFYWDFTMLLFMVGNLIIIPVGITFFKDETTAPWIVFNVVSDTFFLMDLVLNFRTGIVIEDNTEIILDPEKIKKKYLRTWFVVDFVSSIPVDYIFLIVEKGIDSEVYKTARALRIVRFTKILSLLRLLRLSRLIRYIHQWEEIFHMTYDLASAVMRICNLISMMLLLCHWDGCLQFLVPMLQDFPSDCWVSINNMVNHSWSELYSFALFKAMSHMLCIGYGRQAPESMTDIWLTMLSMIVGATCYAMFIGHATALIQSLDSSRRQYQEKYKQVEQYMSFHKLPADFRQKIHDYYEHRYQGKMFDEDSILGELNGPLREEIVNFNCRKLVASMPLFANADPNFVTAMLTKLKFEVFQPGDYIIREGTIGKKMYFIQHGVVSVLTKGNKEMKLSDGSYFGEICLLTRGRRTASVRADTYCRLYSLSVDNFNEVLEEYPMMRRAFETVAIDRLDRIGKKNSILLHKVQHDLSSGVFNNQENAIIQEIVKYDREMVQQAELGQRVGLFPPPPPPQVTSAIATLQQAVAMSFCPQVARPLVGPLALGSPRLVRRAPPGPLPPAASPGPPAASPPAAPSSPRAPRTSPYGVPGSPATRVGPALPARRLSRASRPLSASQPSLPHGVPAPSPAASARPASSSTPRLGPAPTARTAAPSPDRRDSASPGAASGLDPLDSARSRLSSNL
Description: The whole-cell voltage clamp technique was employed to record native If or expressed IHCN2 or IHCN4. Action potentials were recorded in current clamp mode, again using a whole cell patch electrode/Experiments were carried out on cells supervised at 35° C. Extracellular solution contained (mmol/L): NaCl, 140; NaOH, 2.3; MgCl2, 1; KCl, 5.4; CaCl2, 1.0; HEPES, 5; glucose, 10; pH 7.4. […] In some experiments CsCl (4 mmol/L) was used extracellularly to identify the pacemaker current as the Cs-sensitive current. […] Where indicated, 10 μmol/L cAMP was included in the pipette solution. A fast solution changing apparatus expedited the experimental protocols. The pipette resistance was typically 1–3 M. An Axopatch-200B amplifier and pClampS software (Axon Instruments) were used for acquisition and data analysis. […] For If and IHCN2 measurements, the hyperpolarizing test pulses were 3 or 6 sec long throughout the voltage range. […] In all pacemaker current protocols, each episode ended with a pulse to −5 mV for 0.5 sec to insure full deactivation.
The activation relation of the native or expressed current can be determined from the steady-state I-V relation.

native pacemaker current = conditions: sinus node; cited from earlier work

SMILES	spontaneous rate during drug exposure [1] [beats/min]	effect on heart rate of the culture (in words) [1]	shift of the voltage dependence of HCN2 (expressed HCN2 current; adult myocytes infected with AdHCN2) [mV]	shift of the voltage dependence of HCN2 (expressed HCN2 current; neonate myocytes infected with AdHCN2) [mV]	positive shift of the activation curve of expressed HCN2 current (expressed HCN2 current; threshold concentration of isoproterenol, neonatal ventricular myocyte, two-step voltage protocol, one cell)	threshold concentration on native pacemaker current (native pacemaker current)
CCN(c1ccccc1)c1cc(=NC)n(C)c(C)n1.Cl [ZD-7288]	78	slows the rate				
Nc1ncnc2c1ncn2[C@@H]1O[C@@H]2COP(=O)(O)O[C@H]2[C@H]1O [cAMP, cyclic adenosine monophosphate]			14	17		
C[N+](C)(C)CCOC(N)=O [carbachol]	45	decrease in heart rate				
CC(C)NCC(O)c1ccc(O)c(O)c1 (stereo not shown) [isoproterenol]	63	increase in heart rate			approximately 5 mV	approximately 1 nM

— US7122307B2, “High throughput biological heart rate monitor that is molecularly determined” (The Trustees of Columbia University in the City of New York, priority 2001, dated 2006)
